# From ChEMBL document CHEMBL1201862, “PubChem BioAssay data set” (2004)
#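 Growth conditions: 96-well plates. Treatment: test compound, 48 hours, 5 concentrations. Analysis: linear interpolation between bracketing concentrations; unreached endpoints set to highest concentration. GI50 marks 50% less growth.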 Calls of active or inactive are those of the source. No stated cut-off is given here; in the data, active = GI50 up to about 1.1 µM and inactive = higher.
# Key:
# Test in all cases: NCI tumour cell line growth inhibition, 48 h
# MDA-MB-231 = system: MDA-MB-231
# DU-145 = system: DU-145
# OVCAR-3 = system: OVCAR-3
# UACC-257 = system: UACC-257
# PC-3 = system: PC-3
# A498 = system: A498
# MCF7 = system: MCF7
# SN12C = system: SN12C
# HL-60 = system: HL-60
# MDA-MB-435 = system: MDA-MB-435
# ACHN = system: ACHN
# Hs-578T = system: Hs-578T
# SR = system: SR
# SF-539 = system: SF-539
# DMS-114 = system: DMS-114
# XF498 = system: XF498
# M19-MEL = system: M19-MEL
# KM-20L2 = system: KM-20L2
# DLD-1 = system: DLD-1
# DMS-273 = system: DMS-273
Structure (SMILES),GI50 (MDA-MB-231),GI50 (DU-145),GI50 (OVCAR-3),GI50 (UACC-257),GI50 (PC-3),GI50 (A498),GI50 (MCF7),GI50 (SN12C),GI50 (HL-60),GI50 (MDA-MB-435),GI50 (ACHN),GI50 (Hs-578T),GI50 (SR),GI50 (SF-539),GI50 (DMS-114),GI50 (XF498),GI50 (M19-MEL),GI50 (KM-20L2),GI50 (DLD-1),GI50 (DMS-273)
CC(C)CNCCc1ccccn1,> 100 µM (inactive),> 100 µM (inactive),> 100 µM (inactive),> 100 µM (inactive),> 100 µM (inactive),> 100 µM (inactive),> 100 µM (inactive),> 100 µM (inactive),> 100 µM (inactive),> 100 µM (inactive),> 100 µM (inactive),> 100 µM (inactive),,,,,,,,
Cc1cnc(/C=N\NC(N)=S)c2cccc(N)c12,1.52 µM (inactive),0.411 µM (active),0.426 µM (active),2.54 µM (inactive),2.27 µM (inactive),10.8 µM (inactive),0.526 µM (active),0.434 µM (active),0.3 µM (active),1.48 µM (inactive),0.387 µM (active),> 100 µM (inactive),0.314 µM (active),0.676 µM (active),,,,,,
O=C1C(Cl)N(c2ccccc2)C1c1c[nH]c2ccccc12 (stereo not given),,,> 100 µM (inactive),> 100 µM (inactive),,,,> 100 µM (inactive),> 100 µM (inactive),,,,> 100 µM (inactive),> 100 µM (inactive),> 100 µM (inactive),> 100 µM (inactive),> 100 µM (inactive),> 100 µM (inactive),,
c1ccc2cc3n[se]nc3cc2c1,,,,> 100 µM (inactive),,,,91.8 µM (inactive),> 100 µM (inactive),,> 100 µM (inactive),,,37.6 µM (inactive),> 100 µM (inactive),,,> 100 µM (inactive),62.4 µM (inactive),> 100 µM (inactive)
O=c1[nH]c2c(c3ccccc13)CCc1ccccc1-2,,,> 100 µM (inactive),> 100 µM (inactive),,,,> 100 µM (inactive),,,> 100 µM (inactive),,> 100 µM (inactive),> 100 µM (inactive),> 100 µM (inactive),,> 100 µM (inactive),> 100 µM (inactive),,> 100 µM (inactive)
COC(OC)C1OC(CO)C(n2cc(F)c(=O)[nH]c2=O)C1O (stereo not given),> 100 µM (inactive),21.4 µM (inactive),> 100 µM (inactive),> 100 µM (inactive),> 100 µM (inactive),> 100 µM (inactive),> 100 µM (inactive),> 100 µM (inactive),> 100 µM (inactive),> 100 µM (inactive),> 100 µM (inactive),> 100 µM (inactive),,> 100 µM (inactive),,,,,,
COc1ccc2c(c1)CC1Cc3ccccc3CCN1C2 (stereo not given),6.65 µM (inactive),61.2 µM (inactive),35.1 µM (inactive),52.8 µM (inactive),25.9 µM (inactive),,74.5 µM (inactive),> 100 µM (inactive),53.1 µM (inactive),34.2 µM (inactive),64 µM (inactive),41.2 µM (inactive),65.8 µM (inactive),31.1 µM (inactive),,,,,,
COc1nc2ccc(CNc3ccc(C(=O)NC(CCC(=O)O)C(=O)O)cc3)cc2nc1OC (stereo not given),> 100 µM (inactive),> 100 µM (inactive),> 100 µM (inactive),> 100 µM (inactive),44.6 µM (inactive),> 100 µM (inactive),> 100 µM (inactive),> 100 µM (inactive),> 100 µM (inactive),> 100 µM (inactive),> 100 µM (inactive),> 100 µM (inactive),> 100 µM (inactive),,,,,,,
C/C(=C1/N=C(c2cc([N+](=O)[O-])ccc2Cl)N(c2ccc(Br)cc2)C1=O)c1cc2ccccc2oc1=O,,,49.2 µM (inactive),45.8 µM (inactive),,20.7 µM (inactive),,20.3 µM (inactive),23.7 µM (inactive),,6 µM (inactive),,14.9 µM (inactive),30.1 µM (inactive),10.1 µM (inactive),,5.89 µM (inactive),17.6 µM (inactive),22.1 µM (inactive),
CC(=O)Nc1ccc(OCC(O)CO)cc1 (stereo not given),,,> 100 µM (inactive),> 100 µM (inactive),,> 100 µM (inactive),,> 100 µM (inactive),,,> 100 µM (inactive),,> 100 µM (inactive),> 100 µM (inactive),,> 100 µM (inactive),> 100 µM (inactive),> 100 µM (inactive),23.2 µM (inactive),> 100 µM (inactive)
CC(=O)OCC1OC(n2c(-c3ccc(C)cc3)cc(-c3ccco3)c(C#N)c2=S)C(OC(C)=O)C(OC(C)=O)C1OC(C)=O (stereo not given),22.9 µM (inactive),> 100 µM (inactive),> 100 µM (inactive),> 100 µM (inactive),> 100 µM (inactive),61.7 µM (inactive),40.6 µM (inactive),> 100 µM (inactive),> 100 µM (inactive),> 100 µM (inactive),75.5 µM (inactive),27.9 µM (inactive),> 100 µM (inactive),17.4 µM (inactive),,,,,,
O=C(CC12C3C4C1C1C2C3C41CC(=O)NO)NO (stereo not given),,,34.3 µM (inactive),21.8 µM (inactive),,28.8 µM (inactive),,41.2 µM (inactive),36.9 µM (inactive),,> 100 µM (inactive),,49.3 µM (inactive),46.3 µM (inactive),24.2 µM (inactive),> 100 µM (inactive),,38.2 µM (inactive),48.1 µM (inactive),40.6 µM (inactive)
COc1ccc(C(=O)C(C(=O)CCC(=O)Nc2ccc(Cl)c(Cl)c2)c2ccc(OC)cc2)cc1 (stereo not given),,,> 100 µM (inactive),> 100 µM (inactive),,> 100 µM (inactive),,> 100 µM (inactive),97.1 µM (inactive),,> 100 µM (inactive),,,> 100 µM (inactive),> 100 µM (inactive),> 100 µM (inactive),> 100 µM (inactive),> 100 µM (inactive),> 100 µM (inactive),> 100 µM (inactive)
O=C1OC2(OC2c2ccc(Cl)cc2)c2ccccc21 (stereo not given),,,> 100 µM (inactive),,,,,> 100 µM (inactive),34.3 µM (inactive),,94.2 µM (inactive),,> 100 µM (inactive),> 100 µM (inactive),64.7 µM (inactive),43.4 µM (inactive),> 100 µM (inactive),> 100 µM (inactive),> 100 µM (inactive),> 100 µM (inactive)
C=CCP(=O)(CC=C)C(Cl)Cl,> 100 µM (inactive),> 100 µM (inactive),> 100 µM (inactive),> 100 µM (inactive),> 100 µM (inactive),,> 100 µM (inactive),> 100 µM (inactive),> 100 µM (inactive),,> 100 µM (inactive),> 100 µM (inactive),> 100 µM (inactive),,,,,,,
O=[N+]([O-])C(=C/c1ccccc1)/C(=C\c1ccccc1)[N+](=O)[O-],13.2 µM (inactive),16.1 µM (inactive),19.5 µM (inactive),17 µM (inactive),19.3 µM (inactive),,14.9 µM (inactive),23.4 µM (inactive),,16.5 µM (inactive),16.9 µM (inactive),56.2 µM (inactive),,1.6 µM (inactive),,,,,,
COc1cc2c(cc1OC)-c1cc3ccccc3c(=O)n1CC2,2.17 µM (inactive),25.6 µM (inactive),22 µM (inactive),40.8 µM (inactive),2.68 µM (inactive),,28.3 µM (inactive),26.1 µM (inactive),,22.8 µM (inactive),37.5 µM (inactive),11.4 µM (inactive),14.3 µM (inactive),14.1 µM (inactive),,,,,,
c1ccc(/N=C2\SC3=NCCN3\C2=N/c2ccccc2)cc1,22.9 µM (inactive),13.2 µM (inactive),18.1 µM (inactive),,13.1 µM (inactive),19.8 µM (inactive),10.7 µM (inactive),22.8 µM (inactive),,15.6 µM (inactive),,36.9 µM (inactive),21.4 µM (inactive),,,,,,,
Cc1ccc(S(N)(C(=O)Nc2cccc3ccccc23)[N+](=O)[O-])cc1 (stereo not given),36.6 µM (inactive),68.2 µM (inactive),61.8 µM (inactive),> 100 µM (inactive),50.4 µM (inactive),> 100 µM (inactive),59.2 µM (inactive),> 100 µM (inactive),39.3 µM (inactive),> 100 µM (inactive),,> 100 µM (inactive),58.9 µM (inactive),,,,,,,
COc1cc(Br)c(CC2C3=C(CCN2C(=O)C2CCC2)CC(=O)CC3)cc1O (stereo not given),26.5 µM (inactive),49.4 µM (inactive),23.6 µM (inactive),27.9 µM (inactive),30.7 µM (inactive),,,51.3 µM (inactive),5.9 µM (inactive),17.1 µM (inactive),27.5 µM (inactive),26.1 µM (inactive),38.4 µM (inactive),46.2 µM (inactive),,,,,,
O=C(CCN(CCO)CCO)Nc1ccc2c(c1)C(=O)c1ccc(NC(=O)CCN(CCO)CCO)cc1C2=O,,,16.1 µM (inactive),24.1 µM (inactive),,9.86 µM (inactive),,12.8 µM (inactive),9.59 µM (inactive),,9.29 µM (inactive),,14.8 µM (inactive),4.81 µM (inactive),5.11 µM (inactive),11.9 µM (inactive),13.7 µM (inactive),48.4 µM (inactive),,6.64 µM (inactive)
Nc1n[nH]c2nc3ccccc3nc12 [QUINOXALINE1],> 100 µM (inactive),63.5 µM (inactive),62.4 µM (inactive),> 100 µM (inactive),> 100 µM (inactive),33.7 µM (inactive),61.2 µM (inactive),> 100 µM (inactive),34.8 µM (inactive),> 100 µM (inactive),36 µM (inactive),39 µM (inactive),20 µM (inactive),61.7 µM (inactive),,,,,,
